Literature values, collected in patent US20090269405A1, “ENZYME MEDIATED DELIVERY SYSTEM” (Appian Labs, LLC, priority 2008, published 2009).
Where two headings read alike, the source gives them in different places.

Columns and labels:
[1] = chronic oral, 100 mg bid

| SMILES | onset of musculoskeletal toxicity (severe events) (25 mg daily) [days] | onset of musculoskeletal toxicity (severe events) (75 mg twice daily) [days] | patients who developed abdominal aortic aneurysms [1] |
| --- | --- | --- | --- |
| CNC(=O)[C@@H](NC(=O)[C@H](CC(C)C)[C@H](O)C(=O)NO)C(C)(C)C [Marimastat] | 199 | 56 |  |
| C[C@H]1c2cccc(O)c2C(=O)C2=C(O)[C@]3(O)C(=O)C(C(N)=O)=C(O)[C@@H](N(C)C)[C@@H]3[C@@H](O)[C@@H]21 [doxycycline] |  |  | five out of 33 |
